Source: PMC4049093 (ChemMedChem, 2012)
Entries after “also recorded” stand apart in the source; their conditions may differ. Where two headings read alike, the source gives them in different places.

Assays:
[1] = target: human cannabinoid CB1 receptor (Homo sapiens, UniProt P21554); assay: biochemical; format: binding; details: for CB1/CB2 selectivity ratio CB1 versus CB2: from Ki values at hCB1 and hCB2
[2] = target: human cannabinoid CB2 receptor (Homo sapiens, UniProt P34972); assay: Competitive radioligand binding, displacement of [3H]-CP55,940 from hCB2
Sequence of human cannabinoid CB2 receptor (P34972 whole entry): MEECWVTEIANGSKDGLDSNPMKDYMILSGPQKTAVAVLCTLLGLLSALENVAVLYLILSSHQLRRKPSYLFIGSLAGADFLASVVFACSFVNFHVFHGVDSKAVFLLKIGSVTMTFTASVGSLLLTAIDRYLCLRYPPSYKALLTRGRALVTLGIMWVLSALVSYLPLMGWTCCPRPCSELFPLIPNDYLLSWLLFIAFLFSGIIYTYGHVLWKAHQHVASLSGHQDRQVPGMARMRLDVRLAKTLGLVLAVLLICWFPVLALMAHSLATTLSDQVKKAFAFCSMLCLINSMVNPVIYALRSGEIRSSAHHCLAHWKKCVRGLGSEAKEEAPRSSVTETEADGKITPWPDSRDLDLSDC

[3] = system: mouse vas deferens; assay: Isolated tissue assay: electrically evoked contractions of mouse vas deferens; details: 10^−7–1.8 × 10^−5 M, concentration-response curves
[4] = system: mouse cannabinoid tetrad; assay: Mouse cannabinoid tetrad; details: mice, i.p.; WIN 2.5 and 5 mg/kg, 13a 5 and 10 mg/kg

Sequence of human cannabinoid CB1 receptor (P21554 whole entry): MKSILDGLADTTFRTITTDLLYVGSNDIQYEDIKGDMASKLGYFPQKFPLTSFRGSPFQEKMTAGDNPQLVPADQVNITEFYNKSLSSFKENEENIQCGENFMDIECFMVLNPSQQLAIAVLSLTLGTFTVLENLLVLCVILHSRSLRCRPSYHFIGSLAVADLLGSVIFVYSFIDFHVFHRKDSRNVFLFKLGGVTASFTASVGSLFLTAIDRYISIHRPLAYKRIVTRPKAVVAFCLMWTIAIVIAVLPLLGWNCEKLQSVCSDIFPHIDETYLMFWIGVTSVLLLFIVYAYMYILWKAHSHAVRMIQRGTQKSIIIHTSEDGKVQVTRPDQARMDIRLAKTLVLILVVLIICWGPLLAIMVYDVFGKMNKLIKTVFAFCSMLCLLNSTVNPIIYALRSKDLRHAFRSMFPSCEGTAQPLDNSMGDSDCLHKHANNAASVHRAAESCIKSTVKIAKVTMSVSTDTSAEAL

SMILES	CB1/CB2 selectivity ratio CB1 versus CB2 [1]	Ki [2] [µM]	Binding to CB1 receptor (in words) [1]	Ki [1] [µM]	Binding to CB2 receptor (in words) [2]	further results
CCCCCCC(C)(C)c1cc(O)c2c(c1)OC(C)(C)c1cn(C)nc1-2 [Compound 12b, 7-(1,1-Dimethylheptyl)-2,4-dihydro-2,4,4-trimethylchromeno[4,3-c]pyrazol-9-ol]	>1000	> 40	–	–	–	–
CCCCCc1cc(O)c2c(c1)OC(C)(C)c1cn(CC)nc1-2 [Compound 9b, 2-Ethyl-2,4-dihydro-4,4-dimethyl-7-pentylchromeno[4,3-c]pyrazol-9-ol]	–	4.45 ± 1.01	failed to bind to either CB1 or CB2 receptors	> 40	failed to bind to either CB1 or CB2 receptors	–
CCCCCc1cc(O)c2c(c1)OC(C)(C)c1cnn(C)c1-2 [Compound 8a, 1,4-Dihydro-1,4,4-trimethyl-7-pentylchromeno[4,3-c]pyrazol-9-ol]	0.7	3.46 ± 1	failed to bind to either CB1 or CB2 receptors	4.7 ± 1.2	failed to bind to either CB1 or CB2 receptors	–
CCCCCc1cc(O)c2c(c1)OC(C)(C)c1cn(C)nc1-2 [Compound 8b, 2,4-dihydro-2,4,4-trimethyl-7-pentylchromeno[4,3-c]pyrazol-9-ol]	–	> 40	failed to bind to either CB1 or CB2 receptors	22.1 ± 1.41	failed to bind to either CB1 or CB2 receptors	–
CCCCCCC(C)(C)c1cc(O)c2c(c1)OC(C)(C)c1cnn(CC)c1-2 [Compound 13a, 7-(1,1-Dimethylheptyl)-1-ethyl-1,4-dihydro-4,4-dimethylchromeno[4,3-c]pyrazol-9-ol]	>1000	> 40	–	–	–	Effect on electrically evoked contractile response of mouse vas deferens [3]: highest effectiveness; also recorded: most effective cannabinoid agonist; Antinociception in the hot-plate test (cannabinoid tetrad) [4]: did not modify any of the signs of cannabinoid tetrad; Catalepsy on a ring (cannabinoid tetrad) [4]: did not modify any of the signs of cannabinoid tetrad; Locomotor activity on the rota-rod test (cannabinoid tetrad) [4]: did not modify any of the signs of cannabinoid tetrad; Rectal temperature / hypothermia (cannabinoid tetrad) [4]: did not modify any of the signs of cannabinoid tetrad
CCCCCc1cc(O)c2c(c1)OC(C)(C)c1cnn(-c3ccc(Cl)c(Cl)c3)c1-2 [Compound 10a, 1-(3,4-Dichlorophenyl)-1,4-dihydro-4,4-dimethyl-7-pentylchromeno[4,3-c]pyrazol-9-ol]	–	> 40	binds weakly to the CB1 cannabinoid receptor	0.607 ± 0.151	–	–
CCCCCCC(C)(C)c1cc(O)c2c(c1)OC(C)(C)c1cnn(-c3ccc(Cl)c(Cl)c3)c1-2 [Compound 14a, 1-(3,4-Dichlorophenyl)-7-(1,1-dimethylheptyl)-1,4-dihydro-4,4-dimethylchromeno[4,3-c]pyrazol-9-ol]	0.5	–	reduced affinity for both receptors; also recorded: loss of affinity for CB1	–	reduced affinity for both receptors; also recorded: moderate affinity for CB2 receptor	–
CCCCCCC(C)(C)c1cc(O)c2c(c1)OC(C)(C)c1cn[nH]c1-2 [Compound 11, 1,4-Dihydro-4,4-dimethyl-7-(1,1-dimethylheptyl)chromeno[4,3-c]pyrazol-9-ol]	>1000	> 40	–	–	–	–
Cc1c(C(=O)c2cccc3ccccc23)c2cccc3c2n1[C@H](CN1CCOCC1)CO3 [WIN55,212-2, reference compound]	–	–	–	–	–	Antinociception in the hot-plate test (cannabinoid tetrad) [4]: induced antinociceptive effect in the hot-plate test; Catalepsy on a ring (cannabinoid tetrad) [4]: catalepsy; Locomotor activity on the rota-rod test (cannabinoid tetrad) [4]: reduction of the locomotor activity; Rectal temperature / hypothermia (cannabinoid tetrad) [4]: hypothermia
CCCCCCC(C)(C)c1cc(O)c2c(c1)OC(C)(C)c1cnn(-c3ccc(Cl)cc3Cl)c1-2 [Compound 15a, 1-(2,4-Dichlorophenyl)-7-(1,1-dimethylheptyl)-1,4-dihydro-4,4-dimethylchromeno[4,3-c]pyrazol-9-ol]	>1000	> 40	–	–	–	–
CCCCCc1cc(O)c2c(c1)OC(C)(C)c1cnn(CC)c1-2 [Compound 9a, 1-Ethyl-1,4-dihydro-4,4-dimethyl-7-pentylchromeno[4,3-c]pyrazol-9-ol]	–	> 40	failed to bind to either CB1 or CB2 receptors	9.61	failed to bind to either CB1 or CB2 receptors	–
CCCCCCC(C)(C)c1cc(O)c2c(c1)OC(C)(C)c1cn(CC)nc1-2 [Compound 13b, 7-(1,1-dimethylheptyl)-2-ethyl-2,4-dihydro-4,4-dimethylchromeno[4,3-c]pyrazol-9-ol]	>1000	> 40	–	–	–	–
CCCCCc1cc(O)c2c(c1)OC(C)(C)c1cn[nH]c1-2 [Compound 7, 1,4-Dihydro-4,4-dimethyl-7-pentylchromen[4,3-c]pyrazol-9-ol]	0.5	–	failed to bind to either CB1 or CB2 receptors	–	failed to bind to either CB1 or CB2 receptors	Ki ([1]; read-out: hCB1 Ki, [3H]-CP55940 radioligand, membranes of transfected HEK293 EBNA cells, mean ± SEM of at least three experiments): 4.1 ± 0.8 µM; Ki ([2]; read-out: hCB2 Ki, [3H]-CP55940 radioligand, membranes of transfected HEK293 EBNA cells, mean ± SEM of at least three experiments): 2.01 ± 0.5 µM
